Biological target: T1, EphA2 (Homo sapiens, UniProt P29317)
T1 construct: Methods: biotinylated extracellular domain (ECD)
Assay: SPR; also receptor activation in cells
Format: binding

T1 sequence (P29317 28-206 limits assumed): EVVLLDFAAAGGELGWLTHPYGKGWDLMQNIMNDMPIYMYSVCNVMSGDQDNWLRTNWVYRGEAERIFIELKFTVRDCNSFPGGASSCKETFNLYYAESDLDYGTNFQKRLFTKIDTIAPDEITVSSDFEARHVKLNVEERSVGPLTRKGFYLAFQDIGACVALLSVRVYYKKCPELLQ

How did the Kd turn out when `COc1cc2nc(N3CCN(C(=O)C4COc5ccccc5O4)CC3)nc(N)c2cc1OC` (stereo not shown) [compound 11, doxazosin] was run?
The Kd was 47.6 µM.
